Experimental data taken from the NIST ThermoML archive (doi:10.1021/je050010l).

What was measured:
[1] = refractive index (Na D-line) (dimensionless); xn = mol fraction of the nth substance listed; conditions: 100.8 kPa, Liquid, Standard Abbe refractometry
[2] = xn = mol fraction of the nth substance listed; conditions: 100.8 kPa, Liquid; for viscosity: Capillary tube (Ostwald / Ubbelohde) method

CC(C)=O [acetone] + CCO
Conditions | mass density, 288.15 K [kg/m3] | mass density, 298.15 K [kg/m3] | mass density, 308.15 K [kg/m3] | refractive index, 288.15 K | refractive index, 298.15 K | refractive index, 308.15 K | viscosity, 288.15 K [mPa·s] | viscosity, 298.15 K [mPa·s] | viscosity, 308.15 K [mPa·s]
[1], x1 = 0.05 | – | – | – | 1.36354 | 1.35919 | 1.35486 | – | – | –
[1], x1 = 0.1 | – | – | – | 1.3636 | 1.35915 | 1.3547 | – | – | –
[1], x1 = 0.15 | – | – | – | 1.36366 | 1.35909 | 1.35454 | – | – | –
[1], x1 = 0.2 | – | – | – | 1.36361 | 1.35899 | 1.35435 | – | – | –
[1], x1 = 0.25 | – | – | – | 1.36357 | 1.35887 | 1.35414 | – | – | –
[1], x1 = 0.3 | – | – | – | 1.3635 | 1.35873 | 1.35391 | – | – | –
[1], x1 = 0.35 | – | – | – | 1.36343 | 1.35857 | 1.35369 | – | – | –
[1], x1 = 0.4 | – | – | – | 1.36334 | 1.35842 | 1.35346 | – | – | –
[1], x1 = 0.45 | – | – | – | 1.36324 | 1.35826 | 1.35324 | – | – | –
[1], x1 = 0.4999 | – | – | – | 1.36313 | 1.35809 | 1.353 | – | – | –
[1], x1 = 0.55 | – | – | – | 1.36301 | 1.3579 | 1.35276 | – | – | –
[1], x1 = 0.6 | – | – | – | 1.36289 | 1.35771 | 1.35251 | – | – | –
[1], x1 = 0.65 | – | – | – | 1.36275 | 1.35753 | 1.35228 | – | – | –
[1], x1 = 0.7 | – | – | – | 1.36261 | 1.35734 | 1.35203 | – | – | –
[1], x1 = 0.75 | – | – | – | 1.36246 | 1.35713 | 1.35177 | – | – | –
[1], x1 = 0.8 | – | – | – | 1.3623 | 1.35692 | 1.35152 | – | – | –
[1], x1 = 0.8501 | – | – | – | 1.36214 | 1.35673 | 1.35127 | – | – | –
[1], x1 = 0.9 | – | – | – | 1.36198 | 1.35651 | 1.35102 | – | – | –
[1], x1 = 0.95 | – | – | – | 1.36177 | 1.35629 | 1.3508 | – | – | –
[1], x1 = 1 | – | – | – | 1.36152 | 1.35605 | 1.35057 | – | – | –
[2], x1 = 0.05 | 794.4 | 785.59 | 776.66 | – | – | – | 1.126 | 0.944 | 0.793
[2], x1 = 0.1 | 794.86 | 785.84 | 776.66 | – | – | – | 0.985 | 0.829 | 0.703
[2], x1 = 0.15 | 795.23 | 786 | 776.61 | – | – | – | 0.873 | 0.741 | 0.632
[2], x1 = 0.2 | 795.5 | 786.08 | 776.53 | – | – | – | 0.783 | 0.669 | 0.575
[2], x1 = 0.25 | 795.75 | 786.16 | 776.41 | – | – | – | 0.709 | 0.61 | 0.527
[2], x1 = 0.3 | 795.99 | 786.23 | 776.28 | – | – | – | 0.649 | 0.561 | 0.487
[2], x1 = 0.35 | 796.18 | 786.24 | 776.12 | – | – | – | 0.598 | 0.521 | 0.453
[2], x1 = 0.4 | 796.34 | 786.23 | 775.96 | – | – | – | 0.556 | 0.486 | 0.426
[2], x1 = 0.45 | 796.46 | 786.21 | 775.79 | – | – | – | 0.518 | 0.457 | 0.403
[2], x1 = 0.4999 | 796.57 | 786.19 | 775.63 | – | – | – | 0.488 | 0.431 | 0.383
[2], x1 = 0.55 | 796.68 | 786.17 | 775.47 | – | – | – | 0.461 | 0.409 | 0.364
[2], x1 = 0.6 | 796.77 | 786.13 | 775.3 | – | – | – | 0.438 | 0.39 | 0.349
[2], x1 = 0.65 | 796.84 | 786.07 | 775.13 | – | – | – | 0.418 | 0.373 | 0.335
[2], x1 = 0.7 | 796.86 | 786 | 774.96 | – | – | – | 0.401 | 0.358 | 0.322
[2], x1 = 0.75 | 796.88 | 785.9 | 774.77 | – | – | – | 0.386 | 0.345 | 0.312
[2], x1 = 0.8 | 796.91 | 785.84 | 774.59 | – | – | – | 0.373 | 0.334 | 0.303
[2], x1 = 0.8501 | 796.9 | 785.73 | 774.4 | – | – | – | 0.363 | 0.325 | 0.295
[2], x1 = 0.9 | 796.92 | 785.66 | 774.23 | – | – | – | 0.353 | 0.317 | 0.288
[2], x1 = 0.95 | 796.91 | 785.57 | 774.08 | – | – | – | 0.344 | 0.309 | 0.281
[2], x1 = 1 | 796.87 | 785.47 | 773.91 | – | – | – | 0.334 | 0.302 | 0.274
